Test results as given in article PMC9645260, “Small-molecule inhibitors of P-Rex guanine-nucleotide exchange factors” (Small GTPases, 2022).

Experiments:
[1] = biological target: T1, P-Rex1 DHPH domains (Homo sapiens, UniProt Q8TCU6); test: Liposome-based GEF activity assay, isolated P-Rex1 DHPH domains; format: biochemical; settings: for P-Rex1 Rac-GEF activity reduced to / remaining activity at 10 µM: 10 µM compound; for P-Rex1 Rac-GEF activity reduced to: P-Rex1 DHPH domains; for IC50: liposome-based GEF assay, 200 nM prenylated EE-Rac2 as substrate, read-out: IC50 of inhibition of P-Rex1 DHPH Rac-GEF activity
T1 construct: 100 nM EE-P-Rex1 DHPH domains (PREX-in1, compounds 2–10 and 30–128); made in house; host or cells: Sf9 cells (baculovirus)
Procedure: (§1) Full-length N-terminally EE-tagged P-Rex1, P-Rex2, the P-Rex1 DH and DHPH domains and the P-Rex2 DH domain were produced in Sf9 cells using baculoviral transduction and were purified using anti-EE beads, as previously described. Briefly, frozen pellets from 500 ml of Sf9 culture infected with P-Rex expressing high-titre baculovirus were resuspended in ice-cold lysis Sf9-cell lysis buffer 2 (1x PBS, 1% Triton X-100, 5 mM EGTA, 1 mM EDTA, 25 mM NaF, 20 mM β-glycerophosphate, 1 mM DTT, 100 µM PMSF, 10 μg/ml each of leupeptin, pepstatin A, aprotinin and antipain) for 5 min and then ultracentrifuged at 118,000 × g for 1 h at 4°C. Supernatants were incubated with pre-washed anti-EE beads for 90 min on ice with end-over-end rotation. Beads were washed 4 times in wash buffer (2x PBS, 0.1% Triton X-100, 1 mM EGTA) and 5 times in elution buffer (1x PBS, 10% glycerol, 1 mM DTT, 1 mM EGTA, 0.01% Na azide), and protein was eluted by incubation with elution buffer containing Ac-EEYMPME peptide as described above. Protein was concentrated in a YM-100 Centricon (Millipore) at 5000 × g at 4°C. Fatty acid-free BSA and glycerol were added to final concentrations of 2 mg/ml and 50%, respectively. Protein concentration and purity were determined by coomassie staining of SDS-PAGE gels. Full-length Tiam1, expressed in and purified from Sf9 cells, was a kind gift from Angeliki Malliri, CRUK Manchester Institute, UK. The ITSN1 DHPH domains and Ect2 DHPH domains, produced in and purified from bacteria, were a kind gift from Kent Rossman, University of North Carolina, Chapel Hill, USA. The DOCK10 DHR2 domain, produced in and purified from bacteria, was a kind gift from Danni Fan, Institute of Cancer Research, London, UK. All small GTPase and GEF proteins were stored in aliquots at −80°C and were snap-frozen in liquid N2 after each use.
Liposome-based GEF activity assays were carried out essentially as described, except that GEFs were incubated with inhibitor compounds prior to the assay. GEFs (full-length P-Rex1, P-Rex2, and Tiam1, P-Rex1 DH and DHPH domains, P-Rex2 DH domain, ITSN1 DHPH domains, ECT2 DHPH domains or DOCK10 DHR2 domain) were diluted in 20 mM HEPES (pH 7.0 at 4°C), 200 mM KCl, 10% ethylene glycerol, 1% betaine, 500 µM EGTA, 0.01% azide. […] The final 10 µl samples contained GTPase, GEF and inhibitor at concentrations as stated, in 20 mM HEPES pH 7.5, 100 mM NaCl, 1 mM MgCl2, 1 mM EGTA, 1 mM DTT, 10 mg/ml fatty acid-free BSA, liposomes consisting of phosphatidylcholine, -serine and -inositol (200 µM each), with or without 10 µM PIP3, 1 µM GTPγS and 80 nM (1 µCi) ^35S-GTPγS. Positive controls contained additionally 2 mM EDTA to induce maximal GTP-loading of the GTPase. Samples were incubated at 30°C for 10 min, and reactions were stopped by the addition of 400 µl ice-cold wash buffer (1x PBS, 1 mM EGTA, 10 mM MgCl2, 1% Triton X-100, 100 µM GTP). Small GTPases were isolated using anti-EE antibody-coupled Sepharose beads or glutathione Sepharose beads, as appropriate, by incubation on ice for 90 min with end-over-end rotation, four washes in ice-cold wash buffer and resuspension of beads in Ultima Gold scintillation fluid (Perkin Elmer). ^35S-GTPγS incorporation was assessed by scintillation counting (Packard 1600TR, Liquid Scintillation Analyser).

[2] = biological target: T2, P-Rex1 DH domain (Homo sapiens, UniProt Q8TCU6); test: Liposome-based GEF activity assay, isolated P-Rex1 DH domain; format: biochemical; settings: 10 µM compound
T2 construct: 200 nM iDH EE-P-Rex1 DH domain (compounds 11–29); made in house; host or cells: Sf9 cells (baculovirus)
Procedure: as §1, with “The ITSN1 DHPH domains and Ect2 DHPH domains, produced in and purified from bacteria, were a kind gift from Kent Rossman, University of North Carolina, Chapel Hill, USA. The DOCK10 DHR2 domain, produced in and purified from bacteria, was a kind gift from Danni Fan, Institute of Cancer Research, London, UK. All small GTPase and GEF proteins were stored in aliquots at −80°C and were snap-frozen in liquid N2 after each use.” left out
Liposome-based GEF activity assays were carried out essentially as described, except that GEFs were incubated with inhibitor compounds prior to the assay. […] Small GTPases were isolated using anti-EE antibody-coupled Sepharose beads or glutathione Sepharose beads, as appropriate, by incubation on ice for 90 min with end-over-end rotation, four washes in ice-cold wash buffer and resuspension of beads in Ultima Gold scintillation fluid (Perkin Elmer). ^35S-GTPγS incorporation was assessed by scintillation counting (Packard 1600TR, Liquid Scintillation Analyser).

[3] = 100 nM EE-P-Rex1 DHPH domains, 200 nM prenylated EE-Rac1, PREX-in1, compounds 2-10 and 30-128

T1 sequence (Q8TCU6 49-392 limits assumed): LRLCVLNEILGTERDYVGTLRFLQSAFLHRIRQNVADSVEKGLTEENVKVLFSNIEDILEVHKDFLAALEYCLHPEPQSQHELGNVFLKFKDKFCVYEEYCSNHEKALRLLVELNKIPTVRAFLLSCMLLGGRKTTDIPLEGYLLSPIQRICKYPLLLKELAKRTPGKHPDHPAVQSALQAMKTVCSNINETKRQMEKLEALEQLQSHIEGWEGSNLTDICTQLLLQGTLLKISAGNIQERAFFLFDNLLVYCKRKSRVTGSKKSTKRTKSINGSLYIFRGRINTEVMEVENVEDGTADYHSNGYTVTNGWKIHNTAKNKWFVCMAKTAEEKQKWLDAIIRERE
T2 sequence (Q8TCU6 49-240 limits assumed): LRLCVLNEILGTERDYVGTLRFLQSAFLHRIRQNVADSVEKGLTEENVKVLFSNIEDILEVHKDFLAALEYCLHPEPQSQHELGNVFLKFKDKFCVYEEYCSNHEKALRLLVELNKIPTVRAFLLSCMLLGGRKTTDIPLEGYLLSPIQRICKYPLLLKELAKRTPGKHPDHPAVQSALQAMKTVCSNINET

| SMILES | P-Rex1 Rac-GEF activity reduced to [1] | remaining activity at 10 µM [1, 3] [%] | IC50 [1] [µM] | % P-Rex1 activity remaining [1, 3] [%] | P-Rex1 Rac-GEF activity reduced to ([2]; P-Rex1 DH domain) | remaining activity at 10 µM ([2]; 200 nM EE-P-Rex1 DH domain, 200 nM prenylated EE-Rac1, compounds 11-29) [%] |
| --- | --- | --- | --- | --- | --- | --- |
| COc1ccc(-c2ccc(C3C(C#N)=C(N)Oc4n[nH]c(-c5ccc(Cl)cc5)c43)o2)cc1Cl (stereo not shown) [#76] | below 10% | -2.19 | – | – | – | – |
| COc1ccc(-c2[nH]nc3c2C(c2ccc(-c4ccc(OC)c(Cl)c4)o2)C(C#N)=C(N)O3)cc1 (stereo not shown) [#61] | below 10% | 2 | 2 | – | – | – |
| COc1cc(NC(=O)c2ccc(-c3ccc(Cl)cc3)o2)cc(OC)c1 [#66] | – | – | – | 58 | – | – |
| COc1ccc(-c2ccc(C3C(C#N)=C(N)Oc4n[nH]c(-c5ccc(C)cc5)c43)o2)cc1Cl (stereo not shown) [#72] | below 10% | 1.69 | – | – | – | – |
| N#CC1=C(N)Oc2n[nH]c(-c3ccc(C(F)(F)F)cc3)c2C1c1ccc(-c2ccc(Cl)cc2)o1 (stereo not shown) [#116] | below 10% | 9 | 2.7 | – | – | – |
| CCc1[nH]nc2c1C(c1ccc(-c3ccc(Cl)cc3)o1)C(C#N)=C(N)O2 (stereo not shown) [#26] | – | – | – | – | below 10% | 4 |
